In patent US20130243707A1, “TOPICAL COMPOSITIONS” (priority 2006, published 2013):
Values belong to the compound of their own block, whether it stands above or below them.

Assays:
[1] = tested on: proliferation of lymphocytes in the draining lymph nodes; test: Local lymph node stimulation assay; assay type: in vivo, CBA/J female mice; details: positive control
Description: Compositions of Example 39 are subjected to a local lymph node stimulation assay in CBA/J female mice to determine if present compositions produce a hypersensitivity response as measured by the proliferation of lymphocytes in the draining lymph nodes. Ten groups of 5 mice each are used. Five groups are treated on the dorsal surface of both ears once per day for 3 days the compositions or with a positive control (35% hexylcinnamaldehyde (HCA)). On Day 6, the mice are injected intravenously (IV) with 20 μCi of ^3H-thymidine in sterile saline. Five hours later the mice are euthanized and the draining auricular lymph nodes are removed. […] A three-fold or greater increase in proliferative activity relative to the concurrent vehicle-treated control is considered a positive response. […] Since both of these stimulation indices are greater than 3, the positive controls indeed produced a positive response.

[2] = Solubility of Drugs in single solvent alcohols; assay type: physicochemical
Description: Briefly, the indicated NSAID was weighed and added to a beaker. To each beaker, incremental amounts of the indicated solvent was weighed and added. The beakers were sealed with aluminum foil and placed at room temperature or in a 35 C water bath for 20-30 minutes. They beakers were shaken frequently to mix the contents. After 20-30 minutes the solvent alcohols were examined. If a single phasic solution was not yet achieved, an additional aliquot of the solvent was added and the cycle was repeated until complete solvation had occurred.

[3] = Prodrug (ester) formation upon storage, HPLC; assay type: physicochemical; details: for rate of prodrug generation: 2% propylene glycol, linear for at least the first 26 days
Description: Next, the peak was characterized in terms of retention position, UV spectrum and mass spectroscopy response. In addition, isolates of the peak were collected from the chromatograph system employed for liquid chromatography-mass spectroscopy. […] The solution was centrifuged and the supernatant collected for analysis. Chromatography was conducted as follows: • Pumps: Hewlett Packard Model 1100 Binary Systems • Solvent A: Water • Solvent B: Acetonitrile • Gradient: […] Sequential detection was performed by UV absorbance using an HP diode array detector followed by ESI-MS […] using a Sciex O-Star/Pulsar quadrupole-TOF mass spectrometer operating in either the positive and negative ion modes. […] At acidic pH (e.g. […]), prodrug formation was relatively independent of Drug concentration. However, at pH 5, prodrug formation seemed to be first order (i.e. dependant upon the Drug concentration).

[4] = Super-solvent water effect (maximum water before NSAID precipitates); assay type: physicochemical
Description: Methods. […] These amounts are chosen based upon the solubility of one gram of NSAID and the amount of the single solvent alcohol for saturation. Next, water was added in step-wise manner to determine the maximum amount that can be added before any visible amount of the NSAID precipitated (i.e., the volume of water that can be added and yet remain single phasic).

Structure (SMILES): CCCCCC/C(C=O)=C\c1ccccc1 [HCA, hexylcinnamaldehyde]
stimulation index ([1]; 35% HCA in ISW-AP-01 placebo): 4.6
stimulation index ([1]; 35% HCA in ethanol): 4.4

Maximum Drug Concentration in single alcohol: EtOH ([2]; Solubility at 35 C): 50.00
Maximum Drug Concentration in single alcohol: IPA ([2]; Solubility at 35 C): 47.62
Maximum Drug Concentration in single alcohol: PEG ([2]; Solubility at 35 C): 25.00
Maximum Drug Concentration in single alcohol: PG ([2]; Solubility at 35 C): 20.00
Maximum Drug Concentration in single alcohol: EtOH ([2]; Solubility at Room Temperature): 37.04
Maximum Drug Concentration in single alcohol: IPA ([2]; Solubility at Room Temperature): 35.71
Maximum Drug Concentration in single alcohol: PEG ([2]; Solubility at Room Temperature): 22.22
Maximum Drug Concentration in single alcohol: PG ([2]; Solubility at Room Temperature): 15.38
rate of prodrug generation ([3]; pH 3.7, composition of 15% ibuprofen, about 60% ethanol, 3% glycerin): approximately 0.05 % per day
rate of prodrug generation ([3]; pH 5, composition of 15% ibuprofen, about 60% ethanol, 3% glycerin): about 0.025 % per day
Super-solvent Effect on water ([4]; Ibuprofen 2 gm, EtOH 1 gm, IPA 1.1 gm): 11.4%
Super-solvent Effect on water ([4]; Ibuprofen 2 gm, PEG 3 gm, EtOH 1 gm): 45.9%
Super-solvent Effect on water ([4]; Ibuprofen 2 gm, PEG 3 gm, IPA 1.1 gm): 55%
Super-solvent Effect on water ([4]; Ibuprofen 2 gm, PG 4 gm, EtOH 1 gm): 65.8%
Super-solvent Effect on water ([4]; Ibuprofen 2 gm, PG 4 gm, IPA 1.1 gm): 65.3%
Super-solvent Effect on water ([4]; Ibuprofen 2 gm, PG 4 gm, PEG 3 gm): 56%
Super-solvent Effect on water ([4]; Ibuprofen 3 gm, PEG 3 gm, EtOH 1 gm, IPA 1.1 gm): 40.4%
Super-solvent Effect on water ([4]; Ibuprofen 3 gm, PG 4 gm, EtOH 1 gm, IPA 1.1 gm): 63.2%
Super-solvent Effect on water ([4]; Ibuprofen 3 gm, PG 4 gm, PEG 3 gm, EtOH 1 gm): 57.5%
Super-solvent Effect on water ([4]; Ibuprofen 3 gm, PG 4 gm, PEG 3 gm, IPA 1.1 gm): 57.2%
Structure (SMILES): CC(C)Cc1ccc(C(C)C(=O)O)cc1 (stereo not drawn) [Ibuprofen]
prodrug generation upon storage (HPLC) ([3]; composition of 15% ibuprofen, about 60% ethanol, 3% glycerin, 2% propylene glycol stored for 3 months at 25 C): A new peak (i.e., the prodrug) distinct from the ibuprofen peak was detected
effect of Drug concentration and pH on prodrug generation ([3]; compositions of ibuprofen with ethanol as solvent (FIG. 7)): higher pH (e.g. 5.0) substantially decreases the rate of prodrug formation
